# Columns and labels:
# Alpha-galactosidase C = target: T1, Alpha-galactosidase C (Aspergillus niger, UniProt Q9UUZ4); test: Inhibitory concentration against alpha-galactosidase of Aspergillus niger
# T1 sequence (Q9UUZ4 whole entry): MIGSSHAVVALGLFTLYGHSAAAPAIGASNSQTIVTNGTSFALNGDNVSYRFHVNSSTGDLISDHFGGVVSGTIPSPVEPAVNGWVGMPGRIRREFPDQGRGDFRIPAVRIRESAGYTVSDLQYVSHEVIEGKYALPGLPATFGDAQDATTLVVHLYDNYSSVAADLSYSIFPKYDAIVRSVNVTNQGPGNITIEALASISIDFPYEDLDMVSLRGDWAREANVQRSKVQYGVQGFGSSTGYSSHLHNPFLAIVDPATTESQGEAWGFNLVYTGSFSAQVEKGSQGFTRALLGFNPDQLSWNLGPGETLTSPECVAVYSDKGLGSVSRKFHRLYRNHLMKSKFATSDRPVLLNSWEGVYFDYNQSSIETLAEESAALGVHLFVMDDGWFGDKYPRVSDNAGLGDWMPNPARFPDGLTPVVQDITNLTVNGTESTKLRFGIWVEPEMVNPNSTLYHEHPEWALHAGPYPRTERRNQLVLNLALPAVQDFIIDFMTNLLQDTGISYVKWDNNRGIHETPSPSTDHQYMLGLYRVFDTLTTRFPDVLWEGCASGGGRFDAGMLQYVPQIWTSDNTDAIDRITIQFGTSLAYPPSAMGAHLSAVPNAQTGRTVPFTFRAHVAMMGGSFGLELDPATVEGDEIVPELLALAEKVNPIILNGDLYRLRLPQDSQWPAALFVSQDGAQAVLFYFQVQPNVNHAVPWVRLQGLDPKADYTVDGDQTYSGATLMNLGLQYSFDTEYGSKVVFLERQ
# [1] = target: T2, Tissue alpha-L-fucosidase (Bos taurus, UniProt Q2KIM0); test: Inhibitory concentration against bovine alpha-L-fucosidase
# T2 sequence (Q2KIM0 whole entry): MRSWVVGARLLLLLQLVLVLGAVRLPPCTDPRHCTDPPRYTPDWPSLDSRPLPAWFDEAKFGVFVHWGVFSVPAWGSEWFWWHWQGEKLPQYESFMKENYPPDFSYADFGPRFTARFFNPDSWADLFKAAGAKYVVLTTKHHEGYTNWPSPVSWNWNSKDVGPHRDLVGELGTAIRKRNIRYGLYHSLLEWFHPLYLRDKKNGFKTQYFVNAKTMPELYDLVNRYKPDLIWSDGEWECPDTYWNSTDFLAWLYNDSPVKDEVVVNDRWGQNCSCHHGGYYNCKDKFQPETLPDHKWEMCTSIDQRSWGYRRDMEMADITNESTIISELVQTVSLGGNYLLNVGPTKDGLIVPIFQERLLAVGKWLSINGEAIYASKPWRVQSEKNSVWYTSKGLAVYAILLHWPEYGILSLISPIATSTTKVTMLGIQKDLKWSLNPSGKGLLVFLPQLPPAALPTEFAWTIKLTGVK
Structure (SMILES),IC50 (Alpha-galactosidase C) [nM],IC50 [1] [nM]
OC[C@H]1NC[C@H](O)[C@@H](O)[C@H]1O,1800,
OC[C@@H]1NC[C@@H](O)[C@H](O)[C@@H]1O,,630

# From ChEMBL document CHEMBL1142734, “Biological properties of D- and L-1-deoxyazasugars” (J Med Chem, 2005)
